# Data: publication PMC4744035, “In Vivo, In Vitro, and In Silico Characterization of Peptoids as Antimicrobial Agents” (PLoS ONE, 2016)
# Like-named read-outs stand apart in the source and are kept apart here. Square brackets hold non-standard residues; d marks the D form. Peptide text beside a SMILES is read from it. Nspe = C[C@H](NCC(=O)O)c1ccccc1; Nlys = NCCCCNCC(=O)O
# Tests used:
# E. coli ATCC 35218 = assay type: cell-based
# Procedure: MICs against B. subtilis and E. coli screening bacterial strains were determined using serial dilution in 96-well microtiter plates in accordance with CLSI M7-A6 protocols. Briefly, peptoid solution in cation-adjusted Mueller-Hinton broth was prepared by 2:1 serial dilution with a total volume of 50 µL per well. In experimental wells, 50 µL of bacterial inoculums (1 x 10^6 CFU/mL) were added to the peptoid solutions. Positive controls consisted of 50 µL inoculums added to 50 µL cation-adjusted Mueller-Hinton broth containing no peptoid, while negative controls contained only cation-adjusted Mueller-Hinton broth. […] Experiments were reproducible among three independent replicates, each consisting of two parallel trials.
# erythrocytes = test: Hemolytic activity (HD10/HD50); assay type: cell-based
# Text: Table 1 Characteristics of antimicrobial peptoids, screened for activity against B. subtilis and E. coli bacterial strains. | column: HD10 / HD50
# [1] = test system: E. cloacae 218R Class C β-lactamase; test: microbe, parasite or virus in culture
# Procedure: (§1) The MICs of test agents were measured using a modified broth micro-dilution method in Difco Mueller Hinton medium, on a panel of bacterial pathogens that were both susceptible and resistant to common antibiotics (S1 File). Briefly, serial dilutions were performed in 0.01% acetic acid containing 0.2% bovine serum albumin at 10-fold the desired final concentration. Ten μL of the 10-fold concentrated test reagents were added to each well of a 96-well polypropylene microtitre plate containing 90 μL of Mueller Hinton media per well. Bacteria were added to the plate from an overnight culture at a final concentration of 2–7 x 10^5 CFU/mL and incubated overnight at 37°C. The MIC is defined as the concentration at which no growth was observed.
# (§2) Screening of peptoid antimicrobial activity against a panel of multidrug resistant superbugs was done according to the protocol described in the manuscript. The bacterial strains used in this panel included; P. aeruginosa PAO1 strain H103 [1], P. maltophilia ATCC#13637, S. aureus ATCC#25923 [1], E. faecalis ATCC#29212 [2], and E. cloacae 218R, constitutively expressing Class C chromosomal β-lactamase, were from the Hancock lab strains collection. An MRSA clinical isolate was kindly provided by Anthony Chow (Vancouver General Hospital, Vancouver, Canada). Two Klebsiella pneumoniae and two E. coli clinical isolates expressing extended spectrum β-lactamases (ESBL) were kindly provided by George Zhanel (Health Sciences Centre, Winnipeg, Canada). Vancomycin-resistant clinical isolates of Enterococcus faecalis and E. faecium were obtained from Ana M. Paccagnella (BC Centre for Disease Control, Vancouver, Canada). Three clinical isolates (#9, #198 and #213) of multi-drug resistant P. aeruginosa, were kindly provided by Carlos Kiffer (University of São Paulo, Brazil). […] Three P. aeruginosa clinical isolates of the Liverpool epidemic strain (LES) (H1027, H1030 and LES400) were all kindly provided by Craig Winstanley (University of Liverpool, UK). […] All tested bacterial strains were categorized as biohazard level 2 pathogens.
# E. coli 63103 (ESBL) = test: microbe, parasite or virus in culture
# Procedure: as §1, §2
# E. coli 64771 (ESBL) = test: microbe, parasite or virus in culture
# Procedure: as §1, §2
# E. faecalis ATCC29212 = test: microbe, parasite or virus in culture; conditions: ATCC29212
# Procedure: as §1, §2
# E. faecalis F43559 (VRE) = test: microbe, parasite or virus in culture
# Procedure: as §1, §2
# E. faecalis W61950 (VRE) = test: microbe, parasite or virus in culture
# Procedure: as §1, §2
# E. faecium T62764 (VRE) = test: microbe, parasite or virus in culture
# Procedure: as §1, §2
# E. faecium mic80 (VRE) = test: microbe, parasite or virus in culture
# Procedure: as §1, §2
# [2] = test system: K. pneumonia 61962 (ESBL); test: microbe, parasite or virus in culture
# Procedure: as §1, §2
# [3] = test system: K. pneumonia 63575 (ESBL); test: microbe, parasite or virus in culture
# Procedure: as §1, §2
# P. aeruginosa 198 (MDR) = test: microbe, parasite or virus in culture
# Procedure: as §1, §2
# P. aeruginosa 213 (MDR) = test: microbe, parasite or virus in culture
# Procedure: as §1, §2
# P. aeruginosa 9 (MDR) = test: microbe, parasite or virus in culture
# Procedure: as §1, §2
# [4] = test system: P. aeruginosa H1027 (MDR); test: microbe, parasite or virus in culture
# Procedure: as §1, §2
# [5] = test system: P. aeruginosa H103 (wild type); test: microbe, parasite or virus in culture
# Procedure: as §1, §2
# [6] = test system: P. aeruginosa H1030 (MDR); test: microbe, parasite or virus in culture
# Procedure: as §1, §2
# [7] = test system: P. aeruginosa LES400 (MDR); test: microbe, parasite or virus in culture
# Procedure: as §1, §2
# P. maltophilia ATCC13637 = test: microbe, parasite or virus in culture; conditions: ATCC13637
# Procedure: as §1, §2
# S. aureus ATCC25923 = test: microbe, parasite or virus in culture; conditions: ATCC25923
# Procedure: as §1, §2
# S. aureus C623 (MRSA) = test: microbe, parasite or virus in culture
# Procedure: as §1, §2
compound,measurement,setting,value
"C[C@@H](c1ccccc1)N(CC(N)=O)C(=O)CN(C(=O)CN(CCCCN)C(=O)[C@@H]1CCCN1C(=O)CN(C(=O)CN(CCCCN)C(=O)CN(C(=O)CN(C(=O)CN(CCCCN)C(=O)CN(C(=O)CN(C(=O)CNCCCCN)[C@@H](C)c1ccccc1)[C@@H](C)c1ccccc1)[C@@H](C)c1ccccc1)[C@@H](C)c1ccccc1)[C@@H](C)c1ccccc1)[C@@H](C)c1ccccc1 [Peptoid 1-Pro9, H-(NLys-Nspe2)2-NLys-Nspe-L-Pro-(NLys-Nspe2)-NH2] (H-[Nlys][Nspe][Nspe][Nlys][Nspe][Nspe][Nlys][Nspe]P[Nlys][Nspe][Nspe]-NH2)",MIC E. coli,E. coli ATCC 35218,12.5 µM
same,HD10 (hemolytic activity),erythrocytes,165
same,HD50 (hemolytic activity),erythrocytes,> 200
same,MIC,[1]; 218R Class C β-lactamase,32 µg/mL
same,MIC,E. coli 63103 (ESBL); 63103 (ESBL),32 µg/mL
same,MIC,E. coli 64771 (ESBL); 64771 (ESBL),8 µg/mL
same,MIC,E. faecalis ATCC29212,16 µg/mL
same,MIC,E. faecalis F43559 (VRE); F43559 (VRE),8 µg/mL
same,MIC,E. faecalis W61950 (VRE); W61950 (VRE),32 µg/mL
same,MIC,E. faecium T62764 (VRE); T62764 (VRE),2 µg/mL
same,MIC,E. faecium mic80 (VRE); mic80 (VRE),8 µg/mL
same,MIC,[2],128 µg/mL
same,MIC,[3],64 µg/mL
same,MIC,P. aeruginosa 198 (MDR); 198 (MDR),32 µg/mL
same,MIC,P. aeruginosa 213 (MDR); 213 (MDR),16 µg/mL
same,MIC,P. aeruginosa 9 (MDR); 9 (MDR),256 µg/mL
same,MIC,[4]; H1027 (MDR),2 µg/mL
same,MIC,[5]; H103 (wild type),8 µg/mL
same,MIC,[6]; P. aeruginosa H1030 (MDR),32 µg/mL
same,MIC,[7]; LES400 (MDR),16 µg/mL
same,MIC,P. maltophilia ATCC13637,2 µg/mL
same,MIC,S. aureus ATCC25923,8 µg/mL
same,MIC,S. aureus C623 (MRSA); C623,8 µg/mL
"O=C(O)c1cn(C2CC2)c2cc(N3CCNCC3)c(F)cc2c1=O [Ciprofloxacin, reference compound]",MIC,E. coli 63103 (ESBL); Escherichia coli,> 128 µg/mL
same,MIC,E. coli 64771 (ESBL); Escherichia coli,> 128 µg/mL
same,MIC,E. faecalis ATCC29212; Enterococcus faecalis,0.3 µg/mL
same,MIC,"E. faecalis F43559 (VRE); Enterococcus faecalis, VRE",32 µg/mL
same,MIC,"E. faecalis W61950 (VRE); Enterococcus faecalis, VRE",32 µg/mL
same,MIC,"E. faecium T62764 (VRE); Enterococcus faecium, VRE",128 µg/mL
same,MIC,"E. faecium mic80 (VRE); Enterococcus faecium, VRE",32 µg/mL
same,MIC,[2]; Klebsiella pneumoniae,0.1 µg/mL
same,MIC,[3]; Klebsiella pneumoniae,64 µg/mL
same,MIC,P. aeruginosa 198 (MDR); Pseudomonas aeruginosa,32 µg/mL
same,MIC,P. aeruginosa 213 (MDR); Pseudomonas aeruginosa,64 µg/mL
same,MIC,P. aeruginosa 9 (MDR); Pseudomonas aeruginosa,128 µg/mL
same,MIC,[4]; Pseudomonas aeruginosa,1 µg/mL
same,MIC,[5]; Pseudomonas aeruginosa,0.1 µg/mL
same,MIC,[6]; Pseudomonas aeruginosa,0.3 µg/mL
same,MIC,[7]; Pseudomonas aeruginosa,0.5 µg/mL
same,MIC,P. maltophilia ATCC13637; Stenotrophomonas maltophilia,0.3 µg/mL
same,MIC,S. aureus ATCC25923; Staphylococcus aureus,0.1 µg/mL
same,MIC,"S. aureus C623 (MRSA); Staphylococcus aureus, MRSA",2 µg/mL
"C[C@@H](O)[C@H]1C(=O)N2C(C(=O)O)=C(SCCN=CN)C[C@H]12 [Imipenem, reference compound]",MIC,[1]; Enterobacter cloacae,0.1 µg/mL
same,MIC,E. coli 63103 (ESBL); Escherichia coli,0.1 µg/mL
same,MIC,E. coli 64771 (ESBL); Escherichia coli,0.1 µg/mL
same,MIC,E. faecalis ATCC29212; Enterococcus faecalis,0.5 µg/mL
same,MIC,"E. faecalis F43559 (VRE); Enterococcus faecalis, VRE",2 µg/mL
same,MIC,"E. faecalis W61950 (VRE); Enterococcus faecalis, VRE",2 µg/mL
same,MIC,"E. faecium T62764 (VRE); Enterococcus faecium, VRE",> 128 µg/mL
same,MIC,"E. faecium mic80 (VRE); Enterococcus faecium, VRE",128 µg/mL
same,MIC,[2]; Klebsiella pneumoniae,0.1 µg/mL
same,MIC,[3]; Klebsiella pneumoniae,0.1 µg/mL
same,MIC,P. aeruginosa 198 (MDR); Pseudomonas aeruginosa,32 µg/mL
same,MIC,P. aeruginosa 213 (MDR); Pseudomonas aeruginosa,128 µg/mL
same,MIC,P. aeruginosa 9 (MDR); Pseudomonas aeruginosa,128 µg/mL
same,MIC,[4]; Pseudomonas aeruginosa,8 µg/mL
same,MIC,[5]; Pseudomonas aeruginosa,2 µg/mL
same,MIC,[7]; Pseudomonas aeruginosa,1 µg/mL
same,MIC,P. maltophilia ATCC13637; Stenotrophomonas maltophilia,128 µg/mL
same,MIC,S. aureus ATCC25923; Staphylococcus aureus,0.1 µg/mL
same,MIC,"S. aureus C623 (MRSA); Staphylococcus aureus, MRSA",0.1 µg/mL
"NC[C@H]1O[C@H](O[C@H]2[C@H](O)[C@@H](O[C@H]3O[C@H](CO)[C@@H](O)[C@H](N)[C@H]3O)[C@H](N)C[C@@H]2N)[C@H](N)C[C@@H]1O [Tobramycin, reference compound]",MIC,[1]; Enterobacter cloacae,0.5 µg/mL
same,MIC,E. coli 63103 (ESBL); Escherichia coli,64 µg/mL
same,MIC,E. coli 64771 (ESBL); Escherichia coli,128 µg/mL
same,MIC,E. faecalis ATCC29212; Enterococcus faecalis,16 µg/mL
same,MIC,"E. faecalis F43559 (VRE); Enterococcus faecalis, VRE",32 µg/mL
same,MIC,"E. faecalis W61950 (VRE); Enterococcus faecalis, VRE",> 128 µg/mL
same,MIC,"E. faecium T62764 (VRE); Enterococcus faecium, VRE",> 128 µg/mL
same,MIC,"E. faecium mic80 (VRE); Enterococcus faecium, VRE",128 µg/mL
same,MIC,[2]; Klebsiella pneumoniae,32 µg/mL
same,MIC,[3]; Klebsiella pneumoniae,16 µg/mL
same,MIC,P. aeruginosa 198 (MDR); Pseudomonas aeruginosa,> 128 µg/mL
same,MIC,P. aeruginosa 213 (MDR); Pseudomonas aeruginosa,> 128 µg/mL
same,MIC,P. aeruginosa 9 (MDR); Pseudomonas aeruginosa,> 128 µg/mL
same,MIC,[4]; Pseudomonas aeruginosa,32 µg/mL
same,MIC,[5]; Pseudomonas aeruginosa,0.5 µg/mL
same,MIC,[6]; Pseudomonas aeruginosa,8 µg/mL
same,MIC,[7]; Pseudomonas aeruginosa,4 µg/mL
same,MIC,P. maltophilia ATCC13637; Stenotrophomonas maltophilia,4 µg/mL
same,MIC,S. aureus ATCC25923; Staphylococcus aureus,0.3 µg/mL
same,MIC,"S. aureus C623 (MRSA); Staphylococcus aureus, MRSA",> 128 µg/mL
